One may read the IC50 as the concentration at which inhibition is half-maximal.

Sequence of interaction between p53 and MDM2 proteins (Q00987 whole entry): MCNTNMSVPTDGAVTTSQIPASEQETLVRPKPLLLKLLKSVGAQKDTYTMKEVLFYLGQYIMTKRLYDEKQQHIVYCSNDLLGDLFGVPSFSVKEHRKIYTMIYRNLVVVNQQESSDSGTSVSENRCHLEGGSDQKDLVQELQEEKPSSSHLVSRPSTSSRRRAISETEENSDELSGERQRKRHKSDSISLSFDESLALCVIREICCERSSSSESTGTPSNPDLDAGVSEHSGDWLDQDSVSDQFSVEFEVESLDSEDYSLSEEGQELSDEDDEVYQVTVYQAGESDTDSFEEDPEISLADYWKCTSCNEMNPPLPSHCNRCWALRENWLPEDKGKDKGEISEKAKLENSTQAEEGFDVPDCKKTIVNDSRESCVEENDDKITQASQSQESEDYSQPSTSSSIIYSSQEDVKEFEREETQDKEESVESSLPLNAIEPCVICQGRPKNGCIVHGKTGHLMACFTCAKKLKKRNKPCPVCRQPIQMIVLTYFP

The target of the assay is interaction between p53 and MDM2 proteins (Homo sapiens, UniProt Q00987). As to the kind of experiment: HTRF assay of inhibition of p53-MDM2 interaction (GST-MDM2 binding to biotinylated p53 peptide). The note with it: recombinant GST-tagged MDM2, biotinylated p53 peptide, 0.2% BSA. The method, then:
The ability of the compounds to inhibit the interaction between p53 and MDM2 proteins was measured by an HTRF (homogeneous time-resolved fluorescence) assay in which recombinant GST-tagged MDM2 binds to a peptide that resembles the MDM2-interacting region of p53 (Lane et al.). Binding of GST-MDM2 protein and p53-peptide (biotinylated on its N-terminal end) is registered by the FRET (fluorescence resonance energy transfer) between Europium (Eu)-labeled anti-GST antibody and streptavidin-conjugated Allophycocyanin (APC).
Test is performed in black flat-bottom 384-well plates (Costar) in a total volume of […] containing:90 nM biotinylate peptide, 160 ng/ml GST-MDM2, 20 nM streptavidin-APC (PerkinElmerWallac), 2 nM Eu-labeled anti-GST-antibody (PerkinElmerWallac), 0.2% bovine serum albumin (BSA), 1 mM dithiothreitol (DTT) and 20 mM […] (TBS) buffer as follows: Add 10 uL of GST-MDM2 (640 ng/ml working solution) in reaction buffer to each well. Add 10 uL diluted compounds (1:5 dilution in reaction buffer) to each well, mix by shaking. Add 20 uL biotinylated p53 peptide (180 nM working solution) in reaction buffer to each well and mix on shaker. Incubate at 37° C. for 1 h. Add 20 uL streptavidin-APC and Eu-anti-GST antibody mixture (6 nM Eu-anti-GST and 60 nM streptavidin-APC working solution) in TBS buffer with 0.2% BSA, shake at room temperature for 30 minutes and read using a TRF-capable plate reader at 665 and 615 nm (Victor 5, Perkin ElmerWallac). If not specified, the reagents were purchased from Sigma Chemical Co.
Take `CCOc1nc(C(C)(C)C)ncc1C1=N[C@@](C)(c2ccc(Cl)cc2)[C@@](C)(c2ccc(Cl)cc2)N1C(=O)N1CCC(N2CCCC2)CC1` (racemic) [Example 29, [2-(2-tert-Butyl-4-ethoxy-pyrimidin-5-yl)-4,5-bis-(4-chloro-phenyl)-4,5-dimethyl-4,5-dihydro-imidazol-1-yl]-(4-pyrrolidin-1-yl-piperidin-1-yl)-methanone]: the IC50 was 252 nM.
With `CCOc1nc(C(C)(C)C)ncc1C1=N[C@@](C)(c2ccc(Cl)cc2)[C@@](C)(c2ccc(Cl)cc2)N1C(=O)N1CCN(CCOCCO)CC1` [Example 22, [(4S,5R)-2-(2-tert-Butyl-4-ethoxy-pyrimidin-5-yl)-4,5-bis-(4-chloro-phenyl)-4,5-dimethyl-4,5-dihydro-imidazol-1-yl]-{4-[2-(2-hydroxy-ethoxy)-ethyl]-piperazin-1-yl}-methanone], the IC50 amounted to 31 nM.
The figure for `CCOc1nc(C(C)(C)C)ccc1C1=N[C@@](C)(c2ccc(Cl)cc2)[C@@](C)(c2ccc(Cl)cc2)N1C(=O)N1CCN(CCCS(C)(=O)=O)CC1` (racemic) [Example 9, Rac-[(4S*,5R*)-2-(6-tert-Butyl-2-ethoxy-pyridin-3-yl)-4,5-bis-(4-chloro-phenyl)-4,5-dimethyl-4,5-dihydro-imidazol-1-yl]-[4-(3-methanesulfonyl-propyl)-piperazin-1-yl]-methanone] is 178 nM; for `CCOc1nc(C(C)(C)C)ncc1C1=N[C@@](C)(c2ccc(Cl)cc2)[C@@](C)(c2ccc(Cl)cc2)N1C(=O)N1CCN(CC(=O)N2CCOCC2)CC1` (racemic) [Example 40, Rac-2-{4-[(4S*,5R*)-2-(2-tert-Butyl-4-ethoxy-pyrimidin-5-yl)-4,5-bis-(4-chloro-phenyl)-4,5-dimethyl-4,5-dihydro-imidazole-1-carbonyl]-piperazin-1-yl}-1-morpholin-4-yl-ethanone] it is 77 nM; for `CCOc1nc(C(C)(C)C)ncc1C1=N[C@@](C)(c2ccc(Cl)cc2)[C@@](C)(c2ccc(Cl)cc2)N1C(=O)N1CCN(C2CCS(=O)(=O)CC2)CC1` [Example 4, [(4S,5R)-2-(2-tert-Butyl-4-ethoxy-pyrimidin-5-yl)-4,5-bis-(4-chloro-phenyl)-4,5-dimethyl-4,5-dihydro-imidazol-1-yl]-[4-(1,1-dioxo-hexahydro-thiopyran-4-yl)-piperazin-1-yl]-methanone] it is 46 nM.

The record behind these values is patent publication US8513239B2, “Chiral cis-imidazolines” (Hoffmann-La Roche Inc., priority 2007, dated 2013).
